Data on 3 compounds can be found in patent US4216324A, “1-Difluoromethyl-6,7-methylenedioxy-1,4-dihyd ro-4-oxo-3-quinolinecarboxylic acid” (E. I. Du Pont de Nemours and Company, priority 1978, dated 1980).

The subject of one data set is Sal typhosa. As to the kind of experiment: In vitro minimum inhibitory concentration (MIC), tube dilution test. As to conditions: read-out: Minimal Inhibitory Test Conens. (MIC). Format: cell-based. The procedure: A. In vitro: mimimum inhibitory concentration (MIC)
The compound was tested in a standard bacteriological tube dilution test for MIC for a variety of bacteria. Stock cultures of the bacteria listed in Table 1 were grown in bacterial culture media at 37° C. overnight and diluted in culture tubes to a previously determined concentration proper for the test. The compound was added to result in final concentrations of 10, 2, 0.4 and 0.08 μg/ml. These were incubated for 18 hours at 37° C. and then observed to determine if growth of bacteria had occurred. The lowest concentration of the compound that inhibited bacterial growth in the MIC.
*brain-heart infusion broth, 20hour incubation at 37° C.

In a further data set the test system is Escherichia coli. In words: Escherichia coli (mouse infections). Format: in vivo. As to conditions: female white mice, oral, at infection and again 4 hours after, 72 hours, Reed-Muench, read-out: ED50 (dose effective to save 50% of the mice). The method, then: 1. Escherichia coli (mouse infections)
(§1) Female white mice weighing approximately 20 grams were infected by injecting a sufficient number of E. coli cells intraperitoneally to cause 85-100% fatalities within 3 days after infection. Groups of 12 such infected mice were dosed orally by intubation with the compound suspended in water to equal 40, 20, 10 and 5 mg/kg at the time of infection and again 4 hours after infection time. […] The dose effective to save 50% of the mice (ED50) was calculated by the Reed-Muench method (Reed, L. J. Muench, H. A Single Method of Estimating 50% Endpoints, Am. J. Hygiene 27, p. 493-497 (1938)).

The test system of a further data set is Staphylococcus aureus. In words: Staphylococcus aureus (mouse infections). Format: in vivo. As to conditions: female white mice, oral, at infection and again 4 hours after, 72 hours, Reed-Muench, read-out: ED50 (dose effective to save 50% of the mice). The procedure:
as §1
2. Staphylococcus aureus (mouse infections)
The same methods as the previous test were used, except the compound concentrations were 400, 200, 100 and 50 mg/kg. The ED50 's appear in Table 2.

In the next data set the test system is Pseud. aeruginosa. As to the kind of experiment: In vitro minimum inhibitory concentration (MIC), tube dilution test. It is filed as cell-based. Particulars: Pseudomonas aeruginosa, 20 h, brain-heart infusion broth, 20hour incubation at 37° C., read-out: Minimal Inhibitory Test Conens. (MIC).
In a further data set the test system is mice. In words: General pharmacology screen in mice. Particulars: summary in words of Tables 3 and 4 (mice and rats). The method, then: 17- to 24-hour fasted female white mice, 16-20 g. each, or rats, 70-90 g. each were dosed orally with test drug (or standard) at 0, 4, 12, 36, 108 or 324 mg./kg.
Ataxia--The mouse or rat was placed upright on the bench top facing away from the observer. Motor incoordination manifested by abnormal gait or lack of precision during purposive movements constituted ataxia.
Vertical Bar--The mouse or rat was swung by the tail with head pointing down to a 0.5" diameter (1" diameter for rats), 30.5 cm long vertical rod covered with adhesive tape. Inability to grip the rod with the front paws, sliding or failure to move after being prodded constituted vertical bar loss.
Body Temperature--The rectal temperatures of the mice and rats were taken using a KC-1 thermocouple probe.
Excitement and Irritability--Increased spontaneous motor activity, running and jumping prior to handling were recorded as excitement. Upon handling, jumping, jerking, biting and squeaking were recorded as irritability.
Anorexia--At the end of the 0.5 hour testing period, each mouse was transferred to an individual, clear, Lucite® compartment (13.3 cm×12.7 cm×12.7 cm) with a 0.64 cm×0.64 cm wire mesh floor. Inside each compartment there was a section of a black Lucite® bar [13 cm×1.2 cm×1.2 cm) with ten spot depressions (0.8 cm diameter) each containing 0.05 ml. of 50% sweetened condensed milk. 30 Minutes later the number of milk spots consumed was counted. 5 Mice per drug dose can drink a maximum of 50 spots (2.5 ml. of milk). 15 or fewer spots consumed by 5 mice constituted anorexia.

Another data set has as its system bacteria. As to conditions: Ronald et al., New England Journal of Medicine, 1966; cited from earlier work.
For data set [1] the following is noted: cited from earlier work; for undesirable side effects: Cox, Delaware Medical Journal, 1970.

Values after ≈ are worked out from the molar mass of the structure shown. Read-outs that look alike come from different tables or passages of the source. Bounds are passed on as bounds.

The term MIC denotes the least concentration at which growth counts as inhibited. Broadly, the ED50 is the midpoint of the dose-response relation. For `O=C(O)c1cn(C(F)F)c2cc3c(cc2c1=O)OCO3` [DFMQ, 1-difluoromethyl-6,7-methylenedioxy-1,4-dihydro-4-oxo-3-quinolinecarboxylic acid], the MIC in the data set with Sal typhosa (20 h) is less than 0.08 µg/mL; with Pseud. aeruginosa (Pseud. aeruginosa (11B)), 10 µg/mL (≈ 35.3 µM); in the data set with Pseud. aeruginosa (Pseud. aeruginosa (11C)), 2 µg/mL (≈ 7.06 µM); in the data set with Pseud. aeruginosa (Pseud. aeruginosa (11D)), 10 µg/mL (≈ 35.3 µM); in the data set with Pseud. aeruginosa (Pseud. aeruginosa (11G)), 10 µg/mL (≈ 35.3 µM); in the data set with Pseud. aeruginosa (Pseud. aeruginosa (11I)), 2 µg/mL (≈ 7.06 µM). Further, in the data set on Pseud. aeruginosa (Pseud. aeruginosa (11J)), the MIC is 10 µg/mL (≈ 35.3 µM). Moreover, the ED50 in the data set with Escherichia coli worked out at 9.9 mg/kg; in the data set with Staphylococcus aureus, 149 mg/kg.
As for `CCn1cc(C(=O)O)c(=O)c2ccc(C)nc21` [Nalidixic Acid, nalidixic acid], the “untoward effects in the general pharmacology screen” value with mice was “produced some ataxia, and anorexia”. The MIC in the data set on Pseud. aeruginosa (Pseud. aeruginosa (11B)), with Pseud. aeruginosa (Pseud. aeruginosa (11C)), in the data set with Pseud. aeruginosa (Pseud. aeruginosa (11D)), in the data set on Pseud. aeruginosa (Pseud. aeruginosa (11G)), with Pseud. aeruginosa (Pseud. aeruginosa (11I)) and with Pseud. aeruginosa (Pseud. aeruginosa (11J)) was more than 10 µg/mL in each case. Also, the bacterial resistance entry with bacteria is “tendency to rapidly evoke bacterial resistance”. In addition, the undesirable side effects result in data set [1] is listed as “a relatively high incidence of side effects”.
Regarding `CCn1cc(C(=O)O)c(=O)c2cc3c(cc21)OCO3` [Oxolinic Acid, oxolinic acid], the MIC in the data set on Sal typhosa (Sal typhosa (02D), brain-heart infusion broth, 20hour incubation at 37° C.) came to 0.4 µg/mL (≈ 1.53 µM); in the data set on Pseud. aeruginosa (Pseud. aeruginosa (11B)) it was 2 µg/mL (≈ 7.66 µM); in the data set on Pseud. aeruginosa (Pseud. aeruginosa (11C)), 2 µg/mL (≈ 7.66 µM); with Pseud. aeruginosa (Pseud. aeruginosa (11D)) it was 10 µg/mL (≈ 38.3 µM); in the data set on Pseud. aeruginosa (Pseud. aeruginosa (11G)), 10 µg/mL (≈ 38.3 µM); in the data set on Pseud. aeruginosa (Pseud. aeruginosa (11I)), 2 µg/mL (≈ 7.66 µM). The MIC with Pseud. aeruginosa (Pseud. aeruginosa (11J)) worked out at 2 µg/mL (≈ 7.66 µM). Also, the “untoward effects in the general pharmacology screen” value with mice was “produced ataxia, anorexia, excitation, and irritability”. Further, in data set [1], the undesirable side effects entry is given as “a high incidence of undesirable side effects”. Moreover, in data set [1] (Kershaw and Leigh, 1975), the “toxicity, use in therapy of urinary tract infections” value is recorded as “because of toxicity, "it should not be used as a first-line drug in the therapy of urinary tract infections."”.
